{"source": "paper PMC9605737", "about": "“Identification of 6ω-cyclohexyl-2-(phenylamino carbonylmethylthio)pyrimidin-4(3H)-ones targeting the ZIKV NS5 RNA dependent RNA polymerase” (Frontiers in Chemistry, 2022)", "key": {"[1]": {"assay": "MTT cytotoxicity assay in A549 cells", "type": "cell-based", "conditions": "human", "procedure": "(§1) MTT assay was used to detect the toxicity of the compound. Cells were seeded in 96-well plates and cultured overnight. Compounds with different concentrations were added and incubated for 96 h. Then, 20 μl of 5 mg/ml MTT (Sigma-Aldrich, United States) solution was added to each well and kept at 37°C for 4 h. Subsequently, 100 μl of 12% SDS-50% DMF (Sigma-Aldrich, United States) solution was added and incubated overnight at 37°C. After the crystalline formamidine was completely dissolved, the optical density (OD) value was measured using a microplate reader (BioTek, United States) with a wavelength of 570 nm and a reference wavelength of 630 nm.\n(§2) The 50% effective concentration (EC50) and 50% cytotoxic concentration (CC50) of the compound were calculated according to the Reed and Muench method, inhibition rate of ZIKV RNA yield- [(1-drug treatment/positive control) × 100]. The data and graphs were processed using GraphPad Prism8 software, expressed as mean ± standard deviation (Mean ± SD), comparison between groups using ANOVA, p < 0.05 was considered statistically significant."}, "[2]": {"assay": "MTT cytotoxicity assay in Huh7 cells", "type": "cell-based", "conditions": "human", "procedure": "as §1, §2"}}, "data": [{"smiles": "CCc1c(C2CCCCC2)nc(SCC(=O)Nc2cc(F)cc(F)c2)[nH]c1=O", "note": "[Compound 4w, 2-{[4-cyclohexyl-5-ethyl-6-oxo-1,6-dihydropyrimidin-2-yl]thio}-N-(3,5-difluorophenyl)acetamide]", "values": [{"measurement": "CC50 at 96 h", "setting": "[1]", "value": "> 200", "unit": "µM"}, {"measurement": "CC50 at 96 h", "setting": "[2]", "value": "> 200", "unit": "µM"}]}]}
